From patent publication US4216142A, “Chromogenic substrates for the proteolytic enzymes” (Abbott Laboratories, priority 1978, dated 1980)

Test system: human thrombin
Assay: kinetic analysis of chromogenic substrate hydrolysis by thrombin
Assay type: biochemical
Conditions: substrate 0.1 M in 0.17 M Tris buffer, pH 7.4; human thrombin 0.63 mg/ml; 37° C.; monitored at 405 nm
Experimental: The enzyme and the substrate are mixed in a buffer solution, and the reaction is followed spectrophotometrically for 2 to 30 minutes. The concentration of substrate [S] is varied, whereas the enzyme concentration [E] is kept constant. If the extinction (OD) (=optical density) is plotted in a coordinate system as a function of time, a curve is obtained the tangent of which (difference in extinction per minute, Δ OD/minute, from which the quantity in μmoles of pNA/min(v) can be calculated) at time zero corresponds to the initial course of the hydrolysis. By means of this tangent the initial rate of the hydrolysis can be determined.
If l/v is plotted against l/[S], a Lineweaver-Burk diagram is obtained from which vmax and Km can be determined graphically. Thus Km and kcat can be determined.

sarcosylprolylarginine-p-nitrophenylanilide hydrochloride [Sar-Pro-Arg-pNA.2HCl]
Km: 920 µM
kcat: 158 s⁻¹
